Reference: patent publication US10058540B2, “2-amino-5,5-difluoro-6-(fluoromethyl)-6-phenyl-3,4,5,6-tetrahydropyridines as BACE1 inhibitors” (H. Lundbeck A/S, priority 2014, dated 2018)
Read-outs that look alike come from different tables or passages of the source.

Tests used:
[1] = Bioanalysis of brain and plasma samples (exposure, UPLC-MS/MS); assay type: in vivo, rat; settings: male, Sprague Dawley, po, 3 hours post dose; for Kp at 3 h: brain/plasma, rat, read-out: Brain/Plasma ratio; for concentration at 3 h: read-out: Exp
Description: Young adult Male Sprague Dawley rats of approximately 250 g weight were purchased from Charles River and received 0-30 mg/kg of vehicle (10% HP betaCD+1M MeSO4, pH 2.5) or test compounds (dissolved in vehicle) only by oral gavage (p.o). The compounds are dosed at a volume of […]. Cohorts of 5-10 animals were established for each treatment condition.
At T=180 minutes after initial dosing the animals were stunned and decapitated with a guillotine. Trunk-blood was sampled in EDTA coated tubes after decapitation of the animal. The blood was centrifuged at 2200 G at 4° C. for 15 minutes and the plasma was collected and frozen at −80° C. The blood was aliquoted for Aβ ELISA and DMPK analysis. Immediately following sacrifice, the brain was extracted and split into 2 halves. The right hemibrains were snap frozen on dry ice and stored at −80° C. The left half was dissected; with the front forebrain taken for Aβ ELISA and the remainder used for DMPK analysis. These samples were also snap frozen on dry ice and stored at −80° C. until use for analysis.
TC was determined in plasma and brain homogenate using UltraPerformance LC® (UPLC®) chromatography followed by tandem-MS (MS/MS) detection.
Brain homogenate was prepared by homogenizing the brain 1:4 (v/v) with water:2-propanol:DMSO (50:30:20 v/v/v) followed by centrifugation and collection of the supernatant. Calibration standards and QC samples were prepared using a Hamilton robot. 150 μL of ISTD in acetonitrile (1 ng/mL ISTD) was added to 25 μL of calibration standards, QC samples and test samples (plasma and brain homogenate) using a Biomek robot. After centrifugation (6200 g, 4° C., 20 min) 100 μL supernatant from each sample was transferred to a new plate and mixed with 100 μL water with 0.1% formic acid using a Biomek robot (method file InVivo transfer). After a quick centrifugation (6200 g, 4° C., 5 min) the samples were placed in the auto-sampler.
MS/MS detection was done with an Applied Biosystems Sciex API 4000 instrument in positive-ion electrospray ionisation mode. TC and ISTD were detected at a parent>daughter mass to charge ratio (m/z). Nitrogen was used for the nebulizer and collision gases. The peak area correlated linearly with the plasma and brain concentration of the analytes in the range of 1.00-1000 ng/mL plasma and 5.00-5000 ng/g brain (corrected for dilution). If the plasma/brain sample drug concentration was above 1000 ng/mL or 5000 ng/g, the sample was diluted appropriately in blank plasma/blank brain homogenate before analysis.
• Waters Acquity UPLC HSS C18 SB (pH 2-8) 1.8 μm, 2.1×30 mm. • Mobile phase A: 0.1% aq. formic acid or 0.1% aq. ammonium hydroxide • Mobile phase B: Acetonitrile with 0.1% aq. formic acid or 0.1% aq. ammonium hydroxide. • Weak wash: Methanol • Strong wash: Acetonitrile/Isopropanol/formic acid (50/50/2 v/v/v) • Flow: 0.6 mL/min • Run time: 3 min. • To waste: 0-0.5 min • Temperature: 40° C. Gradient: […]
Compounds 11 and 15 were administered at doses of 10 mg/kg p.o. and brain and plasma samples were collected at 3 hours post dose and the following exposures were measured as described above.

BACE1 [2] = molecular target: T1, BACE1 (Homo sapiens (Human), UniProt P56817); assay: BACE1 efficacy assay (FRET-based, commercial BACE1 kit); assay type: biochemical; settings: 10 μM test compound
Description: The efficacy assay was performed as a FRET-based assay using a commercially available BACE1 kit (Life Technologies, P2985). 2 μl test compound at 10 μM (final concentration) and 15 μl BACE1 enzyme from the kit (final concentration 3 nM) were preincubated for 15 minutes at room temperature before addition of 15 μl of substrate from the kit (250 nM final concentration) and incubated for additional 90 minutes at room temperature. The assay plate was subsequently read in a Pherastar (Ex540/Em590). The enzyme activity observed in presence of test compound were normalized to the enzyme activity observed in presence of buffer and 10 μM (final concentration) of the high affinity BACE1 reference inhibitor (S)-6-[3-Chloro-5-(5-prop-1-ynyl-pyridin-3-yl)-thiophen-2-yl]-2-imino-3,6-dimethyl-tetra-hydropyrimidin-4-one, respectively. The efficacy of the test compounds was evaluated at 10 μM (final concentration) and defined as the percent inhibition of the enzyme activity using the equation % inhibition=100%−normalized enzyme activity in percent.

BACE1 [3] = molecular target: T1, BACE1; assay: BACE1 binding assay (SPA-based, radioligand); settings: pH 4.5, Ki=IC50/(1+L/Kd)
Description: The binding assay was performed as SPA-based assay using a biotinylated form of human BACE1 recombinantly expressed and subsequently purified from Freestyle HEK293 cells. The binding assay was run in a 50 mM sodium acetate buffer, pH 4.5 containing 50 mM NaCl and 0.03% Tween-20 in white clear bottom 384 plates (Corning #3653). 10 nM (final concentration) radioligand ([^3H]-N-((1S,2R)-1-benzyl-3-cyclopropylamino-2-hydroxy-propyl)-5-(methanesulfonyl-methyl-amino)-N-((R)-1-phenyl-ethyl)-isophthalamide) (TRQ11569 purchased from GE Healthcare) was mixed with test compound at a given concentration, 6 nM (final concentration) human BACE1 and 25 μg Streptavidin coated PVT core SPA beads (RPNQ0007, GE Healthcare Life Sciences) in a total volume of 40 μl. Several concentrations of each test compound were tested in the assay for IC50 determination. The plates were incubated for one hour at room temperature and counted in a Wallac Trilux counter. Total and non-specific binding were determined using buffer and 1 μM (final concentration) of the high affinity BACE1 reference inhibitor (S)-6-[3-chloro-5-(5-prop-1-ynyl-pyridin-3-yl)-thiophen-2-yl]-2-imino-3,6-dimethyl-tetrahydro-pyrimidin-4-one, respectively. For each test compound, a IC50 value (the concentration mediating 50% inhibition of the specific binding of the radioligand) was determined from concentration-response curve and used to calculate the Ki from the equation Ki=IC50/(1+L/Kd), where L and Kd are the final concentration of the radioligand used in the assay and the dissociation constant of the radioligand, respectively. The Kd of the radioligand was determined from saturation binding experiments.

T1 sequence (P56817 46-501): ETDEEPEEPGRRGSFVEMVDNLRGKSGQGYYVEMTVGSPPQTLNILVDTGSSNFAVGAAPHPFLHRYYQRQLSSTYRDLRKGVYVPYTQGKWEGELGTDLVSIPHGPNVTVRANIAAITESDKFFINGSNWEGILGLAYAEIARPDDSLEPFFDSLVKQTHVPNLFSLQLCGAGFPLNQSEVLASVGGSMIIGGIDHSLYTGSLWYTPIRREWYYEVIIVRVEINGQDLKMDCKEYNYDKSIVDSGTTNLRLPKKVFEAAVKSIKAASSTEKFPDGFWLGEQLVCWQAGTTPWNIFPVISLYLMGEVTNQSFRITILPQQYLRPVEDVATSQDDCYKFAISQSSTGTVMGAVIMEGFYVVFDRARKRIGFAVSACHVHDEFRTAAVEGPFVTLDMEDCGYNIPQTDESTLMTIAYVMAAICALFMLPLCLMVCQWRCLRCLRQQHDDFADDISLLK

- Kp at 3 h ([1]; 10 mg/kg p.o.): 1.8
- Kp at 3 h ([1]; 30 mg/kg p.o.): 1.3
- concentration at 3 h ([1]; rat brain, 10 mg/kg p.o.): 1760 ng/g
- concentration at 3 h ([1]; rat brain, 30 mg/kg p.o.): 4210 ng/g
- concentration at 3 h ([1]; rat plasma, 10 mg/kg p.o.): 1120 ng/g
- concentration at 3 h ([1]; rat plasma, 30 mg/kg p.o.): 3290 ng/g
- inhibition at 10 µM (BACE1 [2]): 103%
- Ki (BACE1 [3]): 14 nM
SMILES: COc1cnc(C(=O)Nc2cc(F)c(F)c([C@@]3(CF)N=C(N)CCC3(F)F)c2)cn1 [Compound 11, (S)-N-(3-(6-amino-3,3-difluoro-2-(fluoromethyl)-2,3,4,5-tetrahydropyridin-2-yl)-4,5-difluorophenyl)-5-methoxypyrazine-2-carboxamide]
